Experimental data published in PMC11125953 (Viruses, 2024).
Structures can show the parent of a compound that is named as a salt. Where two headings read alike, the source gives them in different places.

Tests used:
[1] = tested on: EHV-4 405/76 reference strain; assay: RTCA; assay type: cell-based, Equid herpesvirus 4; settings: area under normalized Cell Index curves, 0-120 hpi, EHV-4-infected E. Derm cells
[2] = tested on: EHV-4 405/76 reference strain; settings: for CIT50 increase: RTCA, EHV-4-infected E. Derm cells; for Si (CC50/EC50, RTCA): ratio of CC50 to EC50 obtained by RTCA
[3] = tested on: EHV-4 405/76 reference strain; settings: ratio of CC50 to EC50 obtained by qPCR
mice = settings: mouse, in vivo; cited from earlier work
[4] = Cytotoxicity by CellTiter-Glo; settings: horse, E. Derm cells
[5] = Cytotoxicity by impedance using RTCA; settings: horse, E. Derm cells
[6] = tested on: EHV-4 405/76 reference strain; assay: microbe, parasite or virus in culture
[7] = tested on: EHV-4 405/76 reference strain; assay: microbe, parasite or virus in culture; remark: listed apart in the source
in vitro [8] = settings: horse
in vitro [9] = settings: horse; remark: listed apart in the source
[10] = in vivo; cited from earlier work
[11] = Equid alphaherpesvirus 4, read-out: RTCA EC50 (µM ± S.D)
[12] = Equid alphaherpesvirus 4, read-out: RTCA EC50 (µg/mL ± S.D)
[13] = Equid alphaherpesvirus 4, read-out: qPCR EC50 (µM ± S.D)
[14] = Equid alphaherpesvirus 4, read-out: qPCR EC50 (µg/mL ± S.D)

Molecule `Nc1ncn([C@H]2C[C@H](O)[C@@H](CO)O2)c(=O)n1` [Decitabine] has an AUCn ([1]; 0.4 µM) of 73.51, an AUCn ([1]; 2 µM) of 93.80 and an AUCn ([1]; 10 µM) of 120.54. For the same molecule, the AUCn ([1]; 50 µM) was 128.21, the CIT50 increase ([2]; 0.78 µM) was 25.66 ± 10.74 h and the CIT50 increase ([2]; 1.56 µM) was 30.13 ± 15.34 h. For the same molecule, the “Si (CC50/EC50, RTCA)” value [2] was greater than 43.10, the “SI (CC50 CellTiter-Glo/EC50 qPCR)” value [3] was greater than 178.57 and the toxic concentration (mice) was roughly 25 µM. The CC50 [4] was greater than 50 µM, the CC50 [5] was greater than 50 µM and the EC50 [6, 11] was 1.16 ± 0.31 µM. For the same molecule, the EC50 [6, 12] was 0.26 ± 0.07 µg/mL, the EC50 [7, 13] was 0.28 ± 0.05 µM and the EC50 [7, 14] was 0.06 ± 0.01 µg/mL.
With `CC(C)[C@H](N)C(=O)OCC(CO)OCn1cnc2c(=O)nc(N)[nH]c21` (stereo partly shown) [Valganciclovir hydrochloride] the AUCn ([1]; 0.4 µM) was 33.79, the AUCn ([1]; 2 µM) was 42.41 and the AUCn ([1]; 10 µM) was 75.80. For the same molecule, the AUCn ([1]; 50 µM) was 145.98, the “Si (CC50/EC50, RTCA)” value [2] was greater than 5.24 and the “SI (CC50 CellTiter-Glo/EC50 qPCR)” value [3] was greater than 13.89. For the same molecule, the CC50 (in vitro [8]) was greater than 50 µM, the CC50 (in vitro [9]) was greater than 50 µM and the “improvement of the bioavailability of ganciclovir by oral valganciclovir” value [10] was 41 ± 20%. It also gave an EC50 [6, 11] of 9.55 ± 2.81 µM, an EC50 [6, 12] of 3.38 ± 1 µg/mL and an EC50 [7, 13] of 3.6 ± 1.02 µM. The EC50 [7, 14] was 1.28 ± 0.36 µg/mL.
`Cc1nc(N(C)C(=O)Cc2ccc(-c3ccccn3)cc2)sc1S(N)(=O)=O` [BAY 57-1293, pritelivir] showed an AUCn ([1]; 0.4 µM) of 27.43, an AUCn ([1]; 2 µM) of 27.62 and an AUCn ([1]; 10 µM) of 44.70. The AUCn ([1]; 50 µM) was 145.59, the “Si (CC50/EC50, RTCA)” value [2] was greater than 2.81 and the “SI (CC50 CellTiter-Glo/EC50 qPCR)” value [3] was greater than 15.11. For the same molecule, the CC50 [4] was greater than 50 µM, the CC50 [5] was greater than 50 µM and the EC50 [6, 11] was 17.8 ± 1.2 µM. It also gave an EC50 [6, 12] of 7.15 ± 0.48 µg/mL, an EC50 [7, 13] of 3.31 ± 0.89 µM and an EC50 [7, 14] of 1.33 ± 0.36 µg/mL.
